Data on seven compounds can be found in ChEMBL document CHEMBL6078668, “Synthesis and biological evaluation of lappaconitine analogues as potential anti-neuroinflammatory agents by side chain modification and scaffold hopping strategy” (Bioorg Med Chem, 2025).

The source made the active and inactive calls. The calls are words filed in the database; no cut-off is given here.

A short description of data set [1]: Cytotoxicity against C57BL/6 mouse BV-2 cells assessed as survival rate at 10 uM incubated for 24 hrs by MTT assay relative to control. Format: toxicity, cell-based. Particulars: read-out: Survival.
For data set [2], the system named is BV-2. In words: Anti-neuroinflammatory activity against LPS-stimulated C57BL/6 mouse BV-2 cells assessed as inhibition of NO release at 20 uM preincubated with compound for 4 hrs followed by LPS addition and measured after 24 hrs by Griess reagent based assay relative to control. The following applies: C57BL/6, BV-2, time 28 hrs. Format: functional. (Nitrite, measured by Griess reagent, commonly stands in for NO production.)

Data set [3] in a line: Cytotoxicity against C57BL/6 mouse BV-2 cells assessed as survival rate at 20 uM incubated for 24 hrs by MTT assay relative to control. Format: toxicity, cell-based. Particulars: read-out: INH. On the technique in general: Tetrazolium dyes change colour on reduction, which living cells bring about.
Data set [4] concerns BV-2. Put plainly: Anti-neuroinflammatory activity against LPS-stimulated C57BL/6 mouse BV-2 cells assessed as inhibition of NO release at 10 uM preincubated with compound for 4 hrs followed by LPS addition and measured after 24 hrs by Griess reagent based assay relative to control. Format: functional. The following applies: C57BL/6, BV-2, time 28 hrs.
Data set [5] can be described thus: Cytotoxicity against C57BL/6 mouse BV-2 cells assessed as survival rate at 30 uM incubated for 24 hrs by MTT assay relative to control. Particulars: read-out: Survival. Format: toxicity, cell-based.
For data set [6], the system named is BV-2. Put plainly: Anti-neuroinflammatory activity against LPS-stimulated C57BL/6 mouse BV-2 cells assessed as inhibition of NO release at 30 uM preincubated with compound for 4 hrs followed by LPS addition and measured after 24 hrs by Griess reagent based assay relative to control. Particulars: C57BL/6, BV-2, time 28 hrs. Format: functional.
Data set [7] relates to BV-2. Put plainly: Anti-neuroinflammatory activity against LPS-stimulated C57BL/6 mouse BV-2 cells assessed as inhibition of NO release preincubated with compound for 4 hrs followed by LPS addition and measured after 24 hrs by Griess reagent based assay. Format: functional, cell-based. The following applies: C57BL/6, BV-2.
Data set [8] relates to BV-2. Put plainly: Cytotoxicity against C57BL/6 mouse BV-2 cells assessed as effect on cell viability at 30 to 60 uM incubated for 24 hrs by MTT assay. Format: toxicity, cell-based. The following applies: bv-2, 24 h, dose 30-60 µM.
Data set [9] can be described thus: Acute toxicity in Kunming mouse assessed as histological abnormalities in liver at 250 mg/kg, po measured after 14 days by H and E staining based analysis. Format: organism-based. Particulars: in vivo, 336 h, time 14 day.
Data set [10] relates to BV-2. In words: Anti-neuroinflammatory activity against LPS-stimulated C57BL/6 mouse BV-2 cells assessed as downregulation of COX-2 protein expression level by Western blot analysis. Format: functional, cell-based. Particulars: dose 30-60 µM. Background: In western blotting, separated proteins are transferred to a membrane and probed.
A short description of data set [11]: Acute toxicity in Kunming mouse assessed as histological abnormalities in kidney at 250 mg/kg, po measured after 14 days by H and E staining based analysis. Format: organism-based. Particulars: in vivo, 336 h, time 14 day.
In data set [12] the test system is BV-2. Put plainly: Anti-neuroinflammatory activity against LPS-stimulated C57BL/6 mouse BV-2 cells assessed as downregulation of iNOS mRNA expression level at 30 to 60 uM preincubated with compound for 4 hrs followed by LPS addition and measured after 24 hrs by RT-PCR analysis. The following applies: dose 30-60 µM, time 28.0 hrs. Format: functional, cell-based.

For data set [13], the system named is BV-2. In words: Anti-neuroinflammatory activity against LPS-stimulated C57BL/6 mouse BV-2 cells assessed as downregulation of iNOS protein expression level by Western blot analysis. Format: functional, cell-based. The following applies: dose 30-60 µM.
Data set [14] concerns BV-2. Put plainly: Downregulation of TLR4 protein expression in C57BL/6 mouse BV-2 cells at 30 to 60 uM preincubated with compound for 4 hrs followed by LPS stimulation by Western blot analysis. Format: functional, cell-based. Particulars: dose 30-60 µM.
The subject of data set [15] is BV-2. In words: Anti-neuroinflammatory activity against LPS-stimulated C57BL/6 mouse BV-2 cells assessed as decrease in IL-6 mRNA expression level at 30 to 60 uM preincubated with compound for 4 hrs followed by LPS addition and measured after 24 hrs by RT-PCR analysis. Format: functional, cell-based. The following applies: dose 30-60 µM, time 28.0 hrs.
Data set [16] deals with BV-2. In words: Anti-neuroinflammatory activity against LPS-stimulated C57BL/6 mouse BV-2 cells assessed as decrease in TNF-alpha mRNA expression level at 30 to 60 uM preincubated with compound for 4 hrs followed by LPS addition and measured after 24 hrs by RT-PCR analysis. Format: functional, cell-based. Particulars: dose 30-60 µM, time 28.0 hrs.
The test system of data set [17] is BV-2. In words: Anti-neuroinflammatory activity against LPS-stimulated C57BL/6 mouse BV-2 cells assessed as decrease in IL-1beta expression level preincubated with compound for 4 hrs followed by LPS addition and measured after 24 hrs by ELISA. Format: functional, cell-based. The following applies: dose 30-60 µM, time 28.0 hrs.
Data set [18] has as its system BV-2. In words: Downregulation of MyD88 protein expression in C57BL/6 mouse BV-2 cells at 30 to 60 uM preincubated with compound for 4 hrs followed by LPS stimulation by Western blot analysis. Format: functional, cell-based. Particulars: dose 30-60 µM.
Data set [19] in a line: Acute toxicity in po dosed Kunming mouse assessed as lethal dose measured after 14 days. Format: organism-based. Particulars: in vivo, time 14 day.
The test system of data set [20] is BV-2. In words: Anti-neuroinflammatory activity against LPS-stimulated C57BL/6 mouse BV-2 cells assessed as decrease in IL-1beta mRNA expression level at 30 to 60 uM preincubated with compound for 4 hrs followed by LPS addition and measured after 24 hrs by RT-PCR analysis. Format: functional, cell-based. Particulars: dose 30-60 µM, time 28.0 hrs.
Data set [21] has as its system BV-2. Put plainly: Anti-neuroinflammatory activity against LPS-stimulated C57BL/6 mouse BV-2 cells assessed as decrease in TNF-alpha expression level preincubated with compound for 4 hrs followed by LPS addition and measured after 24 hrs by ELISA. The following applies: dose 30-60 µM, time 28.0 hrs. Format: functional, cell-based.
Data set [22] deals with BV-2. In words: Inhibition of NFkappaB p65 nuclear translocation in LPS-stimulated C57BL/6 mouse BV-2 cells at 30 to 60 uM preincubated with compound for 4 hrs followed by LPS stimulation by Western blot analysis. Format: cell-based. Particulars: dose 30-60 µM.
Data set [23] can be described thus: Acute toxicity in Kunming mouse assessed as animal death at 250 mg/kg, po measured after 14 days. Format: organism-based. Particulars: in vivo, 336 h, time 14 day.
Data set [24] is described as follows: Acute toxicity in Kunming mouse assessed as histological abnormalities in heart at 250 mg/kg, po measured after 14 days by H and E staining based analysis. Format: organism-based. The following applies: in vivo, 336 h, time 14 day.
Data set [25] has as its system BV-2. Put plainly: Inhibition of IkappaB phosphorylation in LPS-stimulated C57BL/6 mouse BV-2 cells at 30 to 60 uM preincubated with compound for 4 hrs followed by LPS stimulation by Western blot analysis. Format: cell-based. Particulars: dose 30-60 µM.
Data set [26] in a line: Acute toxicity in Kunming mouse assessed as animal death at 325 to 928 mg/kg, po measured after 14 days. Format: organism-based. The following applies: in vivo, 336 h, dose 325-928 mg/kg, time 14 day.
The nature of data set [27]: Acute toxicity in Kunming mouse assessed as histological abnormalities in spleen at 250 mg/kg, po measured after 14 days by H and E staining based analysis. Format: organism-based. The following applies: in vivo, 336 h, time 14 day.
The subject of data set [28] is BV-2. Put plainly: Anti-neuroinflammatory activity against LPS-stimulated C57BL/6 mouse BV-2 cells assessed as inhibition of NO release at 30 to 60 uM preincubated with compound for 4 hrs followed by LPS addition and measured after 24 hrs by Griess reagent based assay. The following applies: dose 30-60 µM, time 28.0 hrs. Format: functional, cell-based.
Data set [29] is described as follows: Acute toxicity in Kunming mouse assessed as histological abnormalities in lung at 250 mg/kg, po measured after 14 days by H and E staining based analysis. The following applies: in vivo, 336 h, time 14 day. Format: organism-based.
Data set [30] relates to BV-2. Put plainly: Anti-neuroinflammatory activity against LPS-stimulated C57BL/6 mouse BV-2 cells assessed as downregulation of COX-2 mRNA expression level at 30 to 60 uM preincubated with compound for 4 hrs followed by LPS addition and measured after 24 hrs by RT-PCR analysis. Format: functional, cell-based. The following applies: dose 30-60 µM, time 28.0 hrs.
For data set [31], the system named is BV-2. Put plainly: Anti-neuroinflammatory activity against LPS-stimulated C57BL/6 mouse BV-2 cells assessed as decrease in IL-6 expression level preincubated with compound for 4 hrs followed by LPS addition and measured after 24 hrs by ELISA. Format: functional, cell-based. Particulars: dose 30-60 µM, time 28.0 hrs.

For the compound `CCc1ccc(C(=O)Nc2ccccc2C(=O)O[C@H]2[C@@H]3C[C@H]4[C@@]56C7[C@@H](C[C@@H]5[C@@](COC)(CC[C@@H]6OC)CN7CC)[C@@](O)(C[C@@H]3OC)[C@@]24O)cc1`, the viability at 24 h, 10 µM in data set [1] stood at 1.2%.
One may read the inhibition as the percentage by which the read-out fell short of the control. As for `CCc1ccc(C(=O)Nc2ccccc2C(=O)OC[C@@]23CC[C@H](OC)[C@]45C([C@@H](C[C@H]24)[C@@]2(O)C[C@H](OC)[C@H]4C[C@@H]5[C@]2(O)[C@H]4OC)N(CC)C3)cc1`, the inhibition at 20 µM in the data set on BV-2 [2] came out at 21.7%. The viability at 24 h, 20 µM in data set [3] came to 102%.
`CCN1C[C@]2(COC(=O)c3ccccc3NC(=O)c3ccc(Cl)s3)CC[C@H](OC)[C@]34C1[C@@H](C[C@H]23)[C@@]1(O)C[C@H](OC)[C@H]2C[C@@H]4[C@]1(O)[C@H]2OC`: the viability at 24 h, 10 µM in data set [1] came out at 105%. In addition, in the data set on BV-2 [4], the inhibition at 10 µM was 13.5%.
`CCN1C[C@]2(COC(=O)c3ccccc3NC(=O)c3ccc(Cl)s3)CC[C@H](OC)[C@]34C1[C@@H](C[C@H]23)[C@@]1(O)C[C@H](OC)[C@H]2C[C@@H]4[C@]1(O)[C@H]2O`: the inhibition at 20 µM with BV-2 [2] worked out at 45.3%. Also, the viability at 24 h, 20 µM in [3] worked out at 104%.
In general, IC50 refers to the point on the concentration scale where inhibition reaches its midpoint. As for `CCN1C[C@]2(OC(=O)c3ccccc3NC(=O)S(=O)(=O)c3ccccc3F)CC[C@H](OC)[C@]34C1[C@@H](C[C@H]23)[C@@]1(O)C[C@H](OC)[C@H]2C[C@@H]4[C@]1(O)[C@H]2OC`, in [5], the viability at 24 h, 30 µM amounted to 106%. Further, the inhibition at 30 µM in the data set with BV-2 [6] stood at 68%. Further, the IC50 with BV-2 [7] worked out at 18.9 µM.
The corresponding values for `CCN1C[C@]2(OC(=O)c3ccccc3NC(=O)S(=O)(=O)c3ccc(Br)s3)CC[C@H](OC)[C@]34C1[C@@H](C[C@H]23)[C@@]1(O)C[C@H](OC)[C@H]2C[C@@H]4[C@]1(O)[C@H]2OC` are 103%, 81.9% and 11.4 µM.
One may read the LD50 as the dose at which mortality reaches 50%. Consider `CCN1C[C@]2(OC(=O)c3ccccc3NC(=O)S(=O)(=O)c3cccc(F)c3)CC[C@H](OC)[C@]34C1[C@@H](C[C@H]23)[C@@]1(O)C[C@H](OC)[C@H]2C[C@@H]4[C@]1(O)[C@H]2OC`, for which the Activity entry with BV-2 [8] was “Non-toxic”; in data set [9], “Non-toxic”; in the data set on BV-2 [10] it was “Dose-dependent-effect”; in data set [11] it was “Non-toxic”; in the data set with BV-2 [13], “Dose-dependent-effect”; with BV-2 [17], “Dose-dependent-effect”. Moreover, the Activity entry in the data set on BV-2 [21] was “Dose-dependent-effect”; in data set [23], “Non-toxic”; in data set [24], “Non-toxic”; in data set [26] it was “Toxic”; in [27], “Non-toxic”; in [29], “Non-toxic”. The Activity entry in the data set on BV-2 [31] was “Dose-dependent-effect”. For the same compound, the result with BV-2 [12], in the data set with BV-2 [14], in the data set on BV-2 [15], in the data set with BV-2 [16], in the data set with BV-2 [18] and in the data set on BV-2 [20] was Active. In addition, the result in the data set on BV-2 [28] and in the data set on BV-2 [30] was Active. In addition, in [5], the viability at 24 h, 30 µM was 107%. The inhibition at 30 µM with BV-2 [6] was 85.8%. For the same compound, in [19], the LD50 at 336 h turned out to be 508 mg/kg. Further, the inhibition entry with BV-2 [22] and in the data set on BV-2 [25] was “Active” throughout. Moreover, the IC50 in the data set on BV-2 [7] was found to be 9.98 µM.
